Data taken from US9241968B2, “Nonapeptide with anti-tumour activity” (Lytix Biopharma AS, priority 2008, dated 2016).
Non-standard residues stand in square brackets, D forms with d. Residues, ends and D or L forms follow the SMILES beside them. Bip = N[C@@H](Cc1ccc(-c2ccccc2)cc1)C(=O)O; dBip = N[C@H](Cc1ccc(-c2ccccc2)cc1)C(=O)O; Dip = N[C@H](C(=O)O)C(c1ccccc1)c1ccccc1

Experiments:
[1] = system: panel of 10 lymphoma cell lines; test: In vitro cytotoxic activity on lymphoma cells, MTS assay, panel summary; format: cell-based, human; details: range stated in conclusions
Text: (§1) • To determine the concentrations of five novel compounds to obtain a 50% inhibition of proliferation (IC50) against a panel of 10 lymphoma cell lines. 2. Materials and Methods 2.1. Test Substances 2.1.1. Test Substances • Test substances, LTX-302, LTX-313, LTX-315, LTX-320 and LTX-329 (see Table 1) provided in powder form. 2.1.2. Positive Control • Triton X-100 was used as positive control and supplied by Oncodesign (Dijon, France) from Sigma (Saint Quentin Fallavier, France). 2.1.3. Drug vehicle and storage condition • Compounds were stored at 4° C. Powder was first dissolved in serum free culture medium (RPMI 1640, Lonza, Verviers, Belgium) and further diluted using serum-free culture medium to reach appropriate dilutions. Stock solution was not stored and was prepared fresh the day of experiment. • 1% (final concentration) Triton X-100 was obtained by dilution using culture medium. 2.2. Tumor Cell Lines and Culture Conditions 2.2.1. Tumor Cell Lines
Tumor cells were grown as suspensions at 37° C. in a humidified atmosphere (5% CO2, 95% air). The culture medium for each cell line is described in the Table 3 below. For experimental use, cells were counted in a hemocytometer and their viability was assessed by 0.25% trypan blue exclusion.
Tumor cells were plated in 96-well flat-bottom microtitration plates (Nunc, Dutscher, Brumath, France) and incubated at 37° C. for 24 hours before treatment in 190 μl of drug-free and FBS-free culture medium.
Tumor cells were incubated for 4 hours with 10 concentrations of compounds in ¼ dilution step with a top dose of 400 μM (range 4×10^−4 to […]), with 1% (final concentration) Triton X-100 as positive control and FBS-free culture medium as negative control. The cells (190 μl) were incubated in a 200 μl final volume of FBS-free culture medium containing test substances at 37° C. under 5% CO2.
Three independent experiments were performed, each concentration being issued from quadruplicate. Control cells were treated with vehicle alone. At the end of treatments, the cytotoxic activity was evaluated by a MTS assay (see §3.3 below). […]
At the end of the cells treatment, 40 μl of a 0.22 μm filtered freshly combined solution of MTS (20 ml at 2 mg/ml, Ref G1111, Batch 235897, Exp March/2009, Promega, Charbonnières, France) and PMS (1 ml at 0.92 mg/ml, Ref P9625, Batch 065K0961, Sigma) in Dulbecco's Phosphate Buffered Saline (DPBS, Ref 17-513Q, Batch 6MB0152, Cambrex), were added in each well. […] Absorbency (OD) were measured at 490 nm in each well using VICTOR^3™ 1420 multilabeled counter (Wallac, PerkinElmer, Courtaboeuf, France).
4.1. IC50 Data was Determined as in Example 1

[2] = system: panel of 37 human cancer cell lines; test: In vitro cytotoxic activity, MTS assay, panel summary; format: cell-based; details: range stated in conclusions
Method: as §1, with “2.” for “• To determine the concentrations of five novel compounds to obtain a 50% inhibition of proliferation (IC50) against a panel of 10 lymphoma cell lines. 2.”, “control,” for “control and”, “Vehicle” for “vehicle”, “Storage Conditions” for “storage condition”
Tumor cells were grown as adherent monolayers or as suspensions at 37° C. in a humidified atmosphere (5% CO2, 95% air). The culture medium was RPMI 1640 containing 2 mM L-glutamine (Lonza, Belgium) and supplemented with 10% fetal bovine serum (FBS, Lonza). For experimental use, the adherent cells were detached from the culture flask by a 5-minute treatment with trypsin-versene (Lonza), diluted in Hanks' medium without calcium or magnesium (Lonza) and neutralized by addition of complete culture medium. Cells were counted in a hemocytometer and their viability was assessed by 0.25% trypan blue exclusion.
Tumor cells were plated in 96-well flat-bottom microtitration plates (Nunc, Dutscher, Brumath, France) and incubated at 37° C. for 24 hours before treatment in 190 μl of drug-free culture medium supplemented or not with 10% FBS for adherent or suspension growing cell lines, respectively.
The adherent cell lines were washed once with 200 μl FBS-free culture medium before treatment. […]
Three (3) independent experiments were performed, each concentration being tested in quadruplicate. […] At the end of treatments, the cytotoxic activity was evaluated by a MTS assay (see §3.3). […]
At the end of the cells treatment, 40 μl of a 0.22 μm filtered freshly combined solution of MTS (20 ml at 2 mg/ml, Ref G1111, Batch 235897, Exp March/2009, Promega, Charbonnières, France) and PMS (1 ml at 0.92 mg/ml, Ref P9625, Batch 065K0961, Sigma) in Dulbecco's Phosphate Buffered Saline (DPBS, Ref 17-513Q, Batch 6MB0152, Cambrex), were added in each well. […] Absorbency (OD) were measured at 490 nm in each well using VICTOR^3™ 1420 multilabeled counter (Wallac, PerkinElmer, Courtaboeuf, France). […]
The dose-response curves were plotted using XLFit 3 (IDBS, United Kingdom). The IC50 determination values were calculated using the XLFit 3 software from semi-log curves. […]

[3] = system: murine A20 B-cell lymphoma; test: Intratumoral treatment of murine A20 B-cell lymphoma tumours in mice; format: in vivo; details: Group 1 (1 mg) compared to the other two groups
Method: The aim of the study was to investigate the effect of LTX-315 at different dose levels on a murine A20 B-cell lymphoma in mice.
The administration took place by intratumoral injection of LTX-315 dissolved in sterile saline.
Female mice were inoculated subcutaneously in the abdomen with 5 million murine A20 cells (ATCC, LGC Promochem AB, Middlesex, England) in a volume of 50 μl. The mice were divided into four groups (see Table 5 below for details). The intratumoral treatment was initiated when the tumours had reached the desired size of approximately 5 mm in diameter (minimum of 20 mm^2).
Three dose levels of LTX-315, 1 mg (Group 1), 0.5 mg (Group 2) and 0.25 mg (Group 3) per injection, were investigated. The volume was 50 μl for all injections. LTX-315 was dissolved in sterile 0.9% NaCl water solution. This vehicle was used as control (Group 4). All four groups received three injections.
A caliper was used for tumour size measurements and weighing and physical examination were used as health control.
Animals: Specific pathogen-free female Balb/c mice, 6-8 weeks old, supplied form Harlan (England, UK)

Row | SMILES | IC50 values against the 10 human lymphoma cell lines (cytolytic activity), in words [1] | IC50 values against 37 human cancer cell lines (cytolytic activity), in words [2] | necrosis and wound formation [3]
1 | NCCCC[C@H](NC(=O)[C@H](Cc1c[nH]c2ccccc12)NC(=O)[C@H](CCCCN)NC(=O)[C@H](CCCCN)NC(=O)[C@@H](NC(=O)[C@H](Cc1c[nH]c2ccccc12)NC(=O)[C@H](CCCCN)NC(=O)[C@H](CCCCN)NC(=O)[C@@H](N)Cc1c[nH]c2ccccc12)C(c1ccccc1)c1ccccc1)C(N)=O [LTX-302, W-K-K-W-Dip-K-K-W-K-NH2] (H-WKKW[Dip]KKWK-NH2; N-terminus assumed) | micromolar range | micromolar to ten micromolar range | –
2 | NCCCC[C@H](NC(=O)[C@H](Cc1c[nH]c2ccccc12)NC(=O)[C@H](Cc1c[nH]c2ccccc12)NC(=O)[C@H](CCCCN)NC(=O)[C@H](CCCCN)NC(=O)[C@H](Cc1c[nH]c2ccccc12)NC(=O)[C@H](Cc1ccc(-c2ccccc2)cc1)NC(=O)[C@H](CCCCN)NC(=O)[C@@H](N)CCCCN)C(N)=O [LTX-313, K-K-Bip-W-K-K-W-W-K-NH2] (H-KK[Bip]WKKWWK-NH2; N-terminus assumed) | micromolar range | micromolar to ten micromolar range | –
3 | NCCCC[C@H](NC(=O)[C@@H](NC(=O)[C@H](Cc1c[nH]c2ccccc12)NC(=O)[C@H](CCCCN)NC(=O)[C@H](CCCCN)NC(=O)[C@H](Cc1c[nH]c2ccccc12)NC(=O)[C@H](Cc1c[nH]c2ccccc12)NC(=O)[C@H](CCCCN)NC(=O)[C@@H](N)CCCCN)C(c1ccccc1)c1ccccc1)C(N)=O [LTX-315, K-K-W-W-K-K-W-Dip-K-NH2] (H-KKWWKKW[Dip]K-NH2) | – | – | stronger necrosis and more wound formation
4 | N=C(N)NCCC[C@H](NC(=O)[C@H](Cc1c[nH]c2ccccc12)NC(=O)[C@H](Cc1c[nH]c2ccccc12)NC(=O)[C@H](CCCNC(=N)N)NC(=O)[C@H](CCCNC(=N)N)NC(=O)[C@@H](NC(=O)[C@H](Cc1c[nH]c2ccccc12)NC(=O)[C@H](CCCNC(=N)N)NC(=O)[C@@H](N)CCCNC(=N)N)C(c1ccccc1)c1ccccc1)C(N)=O [LTX-320, R-R-W-Dip-R-R-W-W-R-NH2] (H-RRW[Dip]RRWWR-NH2; N-terminus assumed) | micromolar range | micromolar to ten micromolar range | –
5 | NCCCC[C@@H](N)C(=O)N[C@H](CCCCN)C(=O)N[C@H](Cc1ccc(-c2ccccc2)cc1)C(=O)N[C@H](Cc1c[nH]c2ccccc12)C(=O)N[C@H](CCCCN)C(=O)N[C@H](CCCCN)C(=O)N[C@H](Cc1c[nH]c2ccccc12)C(=O)N[C@H](Cc1c[nH]c2ccccc12)C(=O)N[C@H](CCCCN)C(N)=O [LTX-329, k-k-bip-w-k-k-w-w-k-NH2] (H-[dK][dK][dBip][dW][dK][dK][dW][dW][dK]-NH2; N-terminus assumed) | micromolar range | micromolar to ten micromolar range | –
